Key:
Conditions in all cases: 72 h
[1] = test system: Caco-2; assay: cell viability relative to DMSO; higher = less toxic
[2] = test system: Calu-3; assay: as above
[3] = test system: HepG2; assay: as above
[4] = test system: U2OS; assay: as above
[5] = test system: Vero E6; assay: as above
[6] = test system: Caco-2; assay: relative viability EC50 (midpoint between 100% and the lowest measured viability); higher = less toxic
[7] = test system: Calu-3; assay: as above
[8] = test system: HepG2; assay: as above
[9] = test system: U2OS; assay: as above
[10] = test system: Vero E6; assay: as above
[11] = test system: Caco-2; assay: drug sensitivity score (DSS) for viability; higher = more toxic; extreme values may be limits of the assay
[12] = test system: Calu-3; assay: as above
[13] = test system: HepG2; assay: as above
[14] = test system: U2OS; assay: as above
[15] = test system: Vero E6; assay: as above

Row | Structure (SMILES) | cell viability ([1]; 1 nM) | cell viability ([1]; 10 nM) | cell viability ([1]; 100 nM) | cell viability ([1]; 1000 nM) | cell viability ([1]; 10000 nM) | cell viability ([2]; 1 nM) | cell viability ([2]; 10 nM) | cell viability ([2]; 100 nM) | cell viability ([2]; 1000 nM) | cell viability ([2]; 10000 nM) | cell viability ([3]; 1 nM) | cell viability ([3]; 10 nM) | cell viability ([3]; 100 nM) | cell viability ([3]; 1000 nM) | cell viability ([3]; 10000 nM) | cell viability ([4]; 1 nM) | cell viability ([4]; 10 nM) | cell viability ([4]; 100 nM) | cell viability ([4]; 1000 nM) | cell viability ([4]; 10000 nM) | cell viability ([5]; 1 nM) | cell viability ([5]; 10 nM) | cell viability ([5]; 100 nM) | cell viability ([5]; 1000 nM) | cell viability ([5]; 10000 nM) | relative viability EC50 [6] | relative viability EC50 [7] | relative viability EC50 [8] | relative viability EC50 [9] | relative viability EC50 [10] | drug sensitivity score [11] | drug sensitivity score [12] | drug sensitivity score [13] | drug sensitivity score [14] | drug sensitivity score [15]
1 | CCOc1cc(C=O)ccc1O [ethyl-vanillin] | 99.3% | 92.5% | 98.5% | 78.4% | 101% | 98.6% | 108% | 102% | 97.5% | 99.3% | 117% | 99.5% | 96.2% | 103% | 97.1% | 97.4% | 102% | 96.2% | 101% | 99.9% | 106% | 92.8% | 107% | 95.1% | 91.6% | > 10 µM | > 10 µM | > 10 µM | > 10 µM | > 10 µM | 0 | 0 | 0 | 0 | 0
2 | CCc1cc2c(s1)-n1c(C)nnc1CN=C2c1ccccc1Cl [etizolam] | 102% | 103% | 96.4% | 94.3% | 99.2% | 101% | 93.2% | 105% | 96.4% | 105% | 104% | 106% | 106% | 93.1% | 108% | 98.6% | 102% | 98.8% | 97.3% | 96.5% | 104% | 106% | 105% | 99.8% | 99.6% | > 10 µM | > 10 µM | > 10 µM | > 10 µM | > 10 µM | 0 | 0 | 0 | 0 | 0
3 | C=C1/C(=C\C=C2/CCC[C@]3(C)[C@@H]([C@H](C)CCCC(O)(C(F)(F)F)C(F)(F)F)CC[C@@H]23)C[C@@H](O)C[C@@H]1O [falecalcitriol] | 96.2% | 96.1% | 90.6% | 95.6% | 92.6% | 122% | 99.3% | 95.7% | 99.7% | 98.2% | 98.1% | 97% | 94.1% | 102% | 92.9% | 100% | 94.9% | 98.5% | 92.7% | 93.1% | 92.4% | 96.2% | 85.8% | 94.9% | 104% | > 10 µM | > 10 µM | > 10 µM | > 10 µM | > 10 µM | 0 | 0 | 0 | 0 | 0
4 | CSc1ccc(OCc2ncc([N+](=O)[O-])n2C)cc1 [fexinidazole] | 106% | 104% | 105% | 96.7% | 96.9% | 100% | 98.5% | 78.6% | 101% | 97.9% | 92.7% | 85.9% | 104% | 105% | 88.4% | 98.3% | 103% | 99.7% | 97.1% | 98.5% | 103% | 101% | 99.7% | 101% | 97% | > 10 µM | > 10 µM | > 10 µM | > 10 µM | > 10 µM | 0 | 0 | 0 | 0 | 0
5 | COc1ccc(Cl)cc1[C@]1(F)C(=O)Nc2cc(C(F)(F)F)ccc21 [flindokalner] | 95.2% | 102% | 97.6% | 101% | 88.7% | 103% | 91.3% | 96.3% | 96.9% | 93.9% | 103% | 96.3% | 103% | 100% | 95.2% | 96.9% | 102% | 97.3% | 97.8% | 95.2% | 97.7% | 96.1% | 98.8% | 95.6% | 101% | > 10 µM | > 10 µM | > 10 µM | > 10 µM | > 10 µM | 0 | 0 | 0 | 0 | 0
6 | C#C[C@]1(O)CC[C@H]2[C@@H]3CCC4=CC(=O)CCC4=C3C=C[C@@]21CC [gestrinone] | 107% | 116% | 86.1% | 102% | 101% | 106% | 93.3% | 99.9% | 97.8% | 94.1% | 96.7% | 103% | 101% | 103% | 90.6% | 94.7% | 95.8% | 91.6% | 99.9% | 93.9% | 96.6% | 97.2% | 101% | 89.3% | 101% | > 10 µM | > 10 µM | > 10 µM | > 10 µM | > 10 µM | 0 | 0 | 0 | 0 | 0
7 | N[C@H](C(=O)O)c1cc(O)no1 [ibotenic-acid] | 92.9% | 94.2% | 93.6% | 97.2% | 96.5% | 93% | 93.7% | 105% | 93.6% | 94% | 91.3% | 104% | 95.1% | 93.3% | 93.9% | 97.8% | 97.5% | 96.6% | 102% | 92.4% | 102% | 101% | 99.1% | 99.4% | 100% | > 10 µM | > 10 µM | > 10 µM | > 10 µM | > 10 µM | 0 | 0 | 0 | 0 | 0
8 | CC[C@H](Nc1ncnc2[nH]cnc12)c1nc2cccc(F)c2c(=O)n1-c1ccccc1 [idelalisib] | 95.4% | 98.1% | 96.6% | 101% | 83.7% | 106% | 104% | 85.8% | 103% | 89.5% | 104% | 94% | 108% | 97.3% | 88.5% | 91.2% | 101% | 94.1% | 95.6% | 93.9% | 99% | 95% | 96% | 87.5% | 89.5% | > 10 µM | > 10 µM | > 10 µM | > 10 µM | > 10 µM | 0.3 | 0 | 0.1 | 0 | 0.2
9 | CC1Cc2ccccc2N1NC(=O)c1ccc(Cl)c(S(N)(=O)=O)c1 (stereo not given) [indapamide] | 94.8% | 96% | 94.3% | 94.8% | 93.3% | 105% | 110% | 105% | 96.7% | 96% | 95.5% | 95.7% | 94.2% | 99.5% | 97.1% | 101% | 96.9% | 97.9% | 96.7% | 98.3% | 100% | 100% | 103% | 97.4% | 92.9% | > 10 µM | > 10 µM | > 10 µM | > 10 µM | > 10 µM | 0 | 0 | 0 | 0 | 0
10 | O=[N+]([O-])O[C@H]1CO[C@H]2[C@@H]1OC[C@H]2O[N+](=O)[O-] [isosorbide-dinitrate] | 99.1% | 95% | 102% | 90.5% | 98.7% | 99.4% | 101% | 101% | 101% | 107% | 90.6% | 117% | 102% | 113% | 101% | 100% | 96.1% | 100% | 99.8% | 99% | 94.2% | 102% | 92.5% | 97.1% | 108% | > 10 µM | > 10 µM | > 10 µM | > 10 µM | > 10 µM | 0 | 0 | 0 | 0 | 0
11 | COc1ccc(C(=O)NCc2ccc(OCCN(C)C)cc2)cc1OC [itopride] | 99% | 96.5% | 108% | 100% | 89.5% | 102% | 103% | 97.1% | 103% | 91.2% | 97.4% | 96.2% | 87.2% | 90.3% | 107% | 102% | 101% | 99.1% | 103% | 95.1% | 99.9% | 102% | 99.8% | 101% | 96.7% | > 10 µM | > 10 µM | > 10 µM | > 10 µM | > 10 µM | 0 | 0 | 0 | 0 | 0
12 | O=C(C[S+]([O-])Cc1ccco1)NC/C=C\COc1cc(CN2CCCCC2)ccn1 (stereo not given) [lafutidine] | 91.5% | 91.3% | 97.6% | 97% | 90.6% | 91.4% | 106% | 95.6% | 93.2% | 92.3% | 98.3% | 95.4% | 97.9% | 105% | 104% | 99.3% | 100% | 96.9% | 102% | 94.8% | 101% | 100% | 100% | 93.5% | 96.1% | > 10 µM | > 10 µM | > 10 µM | > 10 µM | > 10 µM | 0 | 0 | 0 | 0 | 0
13 | C[C@@H]1CN([C@H]2CC[C@](C#N)(c3ccc(F)cc3)CC2)CC[C@]1(C(=O)O)c1ccccc1 [levocabastine] | 103% | 104% | 108% | 99.5% | 99.3% | 94.2% | 99.3% | 109% | 99.4% | 96.2% | 91.5% | 99.6% | 93.6% | 93.7% | 94.2% | 97.8% | 98% | 104% | 98% | 105% | 102% | 106% | 100% | 104% | 100% | > 10 µM | > 10 µM | > 10 µM | > 10 µM | > 10 µM | 0 | 0 | 0 | 0 | 0
14 | CCN(CC)C(=O)N[C@H]1C=C2c3cccc4[nH]cc(c34)C[C@H]2N(C)C1 [lisuride] | 102% | 81.3% | 101% | 115% | 100% | 96% | 88.6% | 104% | 85% | 105% | 87.7% | 90% | 101% | 97.4% | 96.3% | 99.9% | 100% | 100% | 93.4% | 96% | 97.7% | 106% | 93.5% | 102% | 106% | > 10 µM | > 10 µM | > 10 µM | > 10 µM | > 10 µM | 0 | 0 | 0 | 0 | 0
